# Laboratory results from patent publication US7402591B2, “Analgesic compositions containing buprenorphine” (Reckitt Benckiser Healthcare (UK) Limited, priority 1999, dated 2008).
# System: thermal nociceptive threshold (hindpaw withdrawal latency) in rats with peripheral mononeuropathy
# Experiment: Hargreaves paw withdrawal (plantar) test in rats with sciatic nerve ligation neuropathy
# Assay type: in vivo, rat
# Method: The operator positions the I.R. Generator directly beneath the hind paw of the rat and activates both the I.R. Source and a reaction time counter. When the rat feels pain and withdraws its paw, the I.R. Generator is automatically switched off and the timer stops, determining the withdrawal latency.
# The testing was carried out on the eighth day following the operative procedure.
# In order to determine a baseline for comparison purposes, rats were subjected to the Hargreaves paw withdrawal test before the subcutaneous injection of the various drugs or drug combinations being tested. The rats were then injected subcutaneously with the particular drug or drug combination being tested and the percentage change in time for the rat to withdraw its paw from the thermal stimulation, in comparison with the baseline, was recorded as a percentage in paw withdrawal latency. […]
# After 8 days, thermal nociceptive threshold, as determined by hindpaw withdrawal latency, was measured using a plantar test (Ugo Basile, Comero, Italy). […] This initiated a timing circuit which measured the time interval between the application of the light beam and the withdrawal of the hind paw. […]
# Paw withdrawal latency was determined before injection and at different times after injection. […]
smiles,measurement,setting,value
"C=CCN1CC[C@]23c4c5ccc(O)c4O[C@H]2C(=O)CC[C@@]3(O)[C@H]1C5 [naloxone, 1-N-allyl-14-hydroxynorhydromorphinone]",potentiation of sub-clinical doses of buprenorphine,"Example 1, FIG. 1, low dose naloxone, weight ratios 20:1 and 15:1, subcutaneous, rats n=3",can be clearly seen
same,potentiation of the sub-clinical doses of buprenorphine,"Example 2, FIG. 2, buprenorphine 2.5 μg/kg co-administered subcutaneously at weight ratios 5:1 to 30:1, rats n=6",can be clearly seen
